Among the data in PubChem BioAssay (NCI) are TGI and GI50 values, retold here.

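Dose response: 5 concentrations. Exposure: 48 h. Format: 96-well plates. Endpoint: linear interpolation; highest concentration if not reached. Here, GI50 denotes the concentration required for 50% inhibition of growth. TGI marks complete inhibition of growth.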 Some results are limits rather than exact numbers.

Test systems include UO-31 renal; U251 CNS; NCI-H460 lung; HL-60(TB) leukemia; UACC-257 melanoma; HCC-2998 colon; HOP-62 NSCLC; A549 NSCLC; NCI-H226 lung; DU-145 prostate.
Common to all, as to assay: growth of human tumour cells (NCI), 48 h

For `CC(C)(C)N1CC2(CCCCC2)C1=O`, the TGI in the assay with UO-31 renal, with U251 CNS, with NCI-H460 lung, with HL-60(TB) leukemia, in the assay on UACC-257 melanoma and with HCC-2998 colon was more than 100 µM in each case. Besides, the TGI in the assay with HOP-62 NSCLC, in the assay with A549 NSCLC and in the assay on NCI-H226 lung was more than 100 µM throughout.

For `O=S(O)CCCCSSCc1ccccc1CSSCCCCS(=O)O`, the TGI is 74.4 µM in the assay on UO-31 renal; more than 100 µM in the assay with U251 CNS; more than 100 µM with NCI-H460 lung; 36.2 µM in the assay on HL-60(TB) leukemia; 18.2 µM in the assay with UACC-257 melanoma; more than 100 µM in the assay on HCC-2998 colon. Besides, the TGI in the assay on HOP-62 NSCLC and with A549 NSCLC was more than 100 µM in each case.

`Cc1cc(C)n(CCNCCn2nc(C)cc2C)n1`: the TGI in the assay on UO-31 renal, in the assay on U251 CNS, with NCI-H460 lung, in the assay with HL-60(TB) leukemia, with UACC-257 melanoma and in the assay on HCC-2998 colon was more than 100 µM throughout. Further, the TGI in the assay with HOP-62 NSCLC and in the assay on A549 NSCLC was more than 100 µM throughout.

Take `O=C(CCC/C(CC(=O)c1ccc(Br)cc1)=N\O)Nc1ccccc1`: the TGI in the assay on UO-31 renal, in the assay on U251 CNS, in the assay on NCI-H460 lung, in the assay with HL-60(TB) leukemia, in the assay with UACC-257 melanoma and in the assay with HCC-2998 colon was more than 100 µM each time. Further, the TGI in the assay on HOP-62 NSCLC, in the assay on A549 NSCLC and in the assay with NCI-H226 lung was more than 100 µM each time.

As to `COc1ccccc1NC(=O)C1=C(C)NC(C)=C(C(=O)Nc2ccccc2OC)C1c1ccc([N+](=O)[O-])cc1`, the TGI with U251 CNS, in the assay with NCI-H460 lung, with HL-60(TB) leukemia, in the assay on UACC-257 melanoma, with HOP-62 NSCLC and with A549 NSCLC was more than 100 µM each time. Further, the TGI in the assay with NCI-H226 lung was more than 100 µM.

As for `CCOC(=O)CCc1c(C)c2c(OC(C)=O)cc(OC(C)=O)cc2oc1=O`, the TGI is more than 100 µM in the assay with UO-31 renal; more than 100 µM in the assay on U251 CNS; 91.1 µM in the assay with NCI-H460 lung; more than 100 µM in the assay with HL-60(TB) leukemia; more than 100 µM in the assay on UACC-257 melanoma; more than 100 µM in the assay with HCC-2998 colon. Moreover, the TGI in the assay on HOP-62 NSCLC and in the assay with A549 NSCLC was more than 100 µM each time.

Consider `NC1CCCC[C@H]1N.N[C@@H]1CCCC[C@@H]1N.O=C(P(=O)([O-])[O-])P(=O)([O-])[O-].[Pt+4].[Pt+4]`, for which the GI50 in the assay on UO-31 renal is more than 100 µM; in the assay on U251 CNS, more than 100 µM; in the assay with NCI-H460 lung, 20 µM; in the assay on HL-60(TB) leukemia it was 18.3 µM; with UACC-257 melanoma, more than 100 µM; with HCC-2998 colon it was more than 100 µM. Further, the GI50 in the assay with HOP-62 NSCLC, in the assay on A549 NSCLC and in the assay with NCI-H226 lung was more than 100 µM throughout. Also, the TGI in the assay with UO-31 renal, in the assay on U251 CNS, in the assay on NCI-H460 lung, with HL-60(TB) leukemia, with UACC-257 melanoma and in the assay with HCC-2998 colon was more than 100 µM in each case. The TGI in the assay with HOP-62 NSCLC, with A549 NSCLC and with NCI-H226 lung was more than 100 µM in each case.

`CC(=O)OCC1OC([S-])C(OC(C)=O)C(OC(C)=O)C1OC(C)=O.CC[PH+](CC)CC.CC[PH+](CC)CC.[Au].[Au]` (centres undefined): the GI50 is 1.6 µM in the assay with UO-31 renal; 0.149 µM in the assay with U251 CNS; 0.214 µM with UACC-257 melanoma; 0.801 µM with HCC-2998 colon; 1.23 µM in the assay with HOP-62 NSCLC; 1.72 µM in the assay on A549 NSCLC. The GI50 with NCI-H226 lung was 0.244 µM. Further, the TGI was found to be 2.98 µM in the assay with UO-31 renal; 0.306 µM with U251 CNS; 0.0214 µM in the assay with HL-60(TB) leukemia; 0.937 µM with UACC-257 melanoma; 1.95 µM in the assay with HCC-2998 colon; 2.56 µM with HOP-62 NSCLC. For the same compound, the TGI in the assay on A549 NSCLC was 4 µM; in the assay on NCI-H226 lung it was 1.7 µM.

In the case of `CC(C)c1ccccc1S(=O)c1ccccc1C(C)(C)O` (centres undefined), the TGI in the assay on U251 CNS is 39.1 µM; with NCI-H460 lung, more than 100 µM; with HL-60(TB) leukemia it was more than 100 µM; in the assay on UACC-257 melanoma it was more than 100 µM; in the assay on HOP-62 NSCLC, 48.7 µM; in the assay on A549 NSCLC, more than 100 µM. Also, the TGI is more than 100 µM in the assay with DU-145 prostate and 41.8 µM in the assay on NCI-H226 lung.

With `O=C(Nc1ccc([N+](=O)[O-])cc1)C1C(=O)C(=O)N(c2ccc([N+](=O)[O-])cc2)C1=O` (centres undefined), the TGI with UO-31 renal, in the assay on U251 CNS, in the assay on NCI-H460 lung, in the assay on HL-60(TB) leukemia, with UACC-257 melanoma and in the assay with HCC-2998 colon was more than 100 µM throughout. Besides, the TGI in the assay on HOP-62 NSCLC, in the assay with A549 NSCLC and with NCI-H226 lung was more than 100 µM each time.

Consider `Cc1cn2c(/C=C3/C(=O)Nc4ccccc43)c(-c3ccc(Cl)cc3)nc2s1`, for which the GI50 in the assay on UO-31 renal was 35.9 µM; in the assay with U251 CNS it was 5.31 µM; in the assay on NCI-H460 lung, 8.14 µM; in the assay with UACC-257 melanoma, 10.5 µM; in the assay on HOP-62 NSCLC, 8.46 µM; with A549 NSCLC it was 7.52 µM. Also, in the assay with NCI-H226 lung, the GI50 was 7.04 µM. The TGI with UO-31 renal was more than 50 µM; in the assay on U251 CNS it was 11.2 µM; in the assay with NCI-H460 lung, 22.1 µM; with UACC-257 melanoma, 27.8 µM; in the assay with HOP-62 NSCLC, 15.3 µM; in the assay on A549 NSCLC it was 16 µM. Further, the TGI in the assay with NCI-H226 lung turned out to be 21.3 µM.

Turning to `O=C(/C=C/c1ccccc1)/C=C/c1ccccc1`, the TGI with UO-31 renal is more than 100 µM; with U251 CNS, 43.5 µM; in the assay on NCI-H460 lung, 65.5 µM; in the assay on HL-60(TB) leukemia, 78.8 µM; in the assay with UACC-257 melanoma it was 87 µM; in the assay with HCC-2998 colon, more than 100 µM. The TGI in the assay with HOP-62 NSCLC, in the assay on A549 NSCLC and in the assay with NCI-H226 lung was more than 100 µM throughout.

Take `O=C(CSc1nnc(-c2ccccc2NC(=O)C(F)(F)F)c(=O)[nH]1)NC(=O)Nc1ccccc1`: the TGI in the assay on UO-31 renal, with U251 CNS, in the assay on NCI-H460 lung, in the assay with HCC-2998 colon, with HOP-62 NSCLC and in the assay with A549 NSCLC was more than 100 µM in each case. This compound also returned a TGI in the assay with NCI-H226 lung of more than 100 µM.
